Data from patent US12043599B2, “Herbicidal compounds” (SYNGENTA PARTICIPATIONS AG, priority 2018, dated 2024).

How the values were obtained:
Assay type in all cases: in vivo
Conditions in all cases: 250 g/h, evaluated after 13 days
Avena fatua (AVEFA) [1] = experiment: Pre-emergence herbicidal glasshouse test, percentage damage
Experimental: (§1) Seeds of a variety of test species are sown in standard soil in pots (Lolium perenne (LOLPE), Setaria faberi (SETFA), Alopecurus myosuroides (ALOMY), Echinochloa crus-galli (ECHCG), Avena fatua (AVEFA)). After cultivation for one day (pre-emergence) or after 8 days cultivation (post-emergence) under controlled conditions in a glasshouse (at 24/16° C., day/night; 14 hours light; 65% humidity), the plants are sprayed with an aqueous spray solution derived from the formulation of the technical active ingredient in acetone/water (50:50) solution containing 0.5% Tween 20 (polyoxyethelyene sorbitan monolaurate, CAS RN 9005-64-5). Compounds are applied at […]. The test plants are then grown in a glasshouse under controlled conditions in a glasshouse (at 24/16° C., day/night; 14 hours light; 65% humidity) and watered twice daily. After 13 days for pre and post-emergence, the test is evaluated for the percentage damage caused to the plant. The biological activities are shown in the following table on a five point scale (5=80-100%; 4=60-79%; 3=40-59%; 2=20-39%; 1=0-19%).

[2] = test system: Echinochloa crus-galli (ECHCG); experiment: as above
Experimental: as §1

Lolium perenne (LOLPE) [3] = experiment: as above
Experimental: as §1

Setaria faberi (SETFA) [4] = experiment: as above
Experimental: as §1

Setaria faberi (SETFA) [5] = experiment: Post-emergence herbicidal glasshouse test, percentage damage
Experimental: as §1
Using procedures outlines above, wheat and barley crop plants and a weed species (SETFA) are treated post-emergence with compound A11 of the present invention or comparator compound C1 (Compound A-38 from WO2014/096289) at the application rates indicated. The compounds were also applied to wheat in conjunction with the safener compound cloquintocet-mexyl (CQC) at 50 g/ha.

Avena fatua (AVEFA) [6] = experiment: as above
Experimental: as §1

[7] = test system: Echinochloa crus-galli (ECHCG); experiment: as above
Experimental: as §1

Lolium perenne (LOLPE) [8] = experiment: as above
Experimental: as §1

Row | SMILES | AVEFA PRE percentage damage (five point scale) (Avena fatua (AVEFA) [1]) | ECHCG PRE percentage damage (five point scale) [2] | LOLPE PRE percentage damage (five point scale) (Lolium perenne (LOLPE) [3]) | SETFA PRE percentage damage (five point scale) (Setaria faberi (SETFA) [4]) | SETFA POST percentage damage (five point scale) (Setaria faberi (SETFA) [5]) | AVEFA POST percentage damage (five point scale) (Avena fatua (AVEFA) [6]) | ECHCG POST percentage damage (five point scale) [7] | LOLPE POST percentage damage (five point scale) (Lolium perenne (LOLPE) [8])
1 | CC#Cc1cc(C)c(C2C(=O)CC3(CCN(C(=O)c4cnco4)CC3)CC2=O)c(C)c1 [Compound A116] | 5 (5=80-100%) | 5 (5=80-100%) | 5 (5=80-100%) | 5 (5=80-100%) | 5 (5=80-100%) | 5 (5=80-100%) | 5 (5=80-100%) | 5 (5=80-100%)
2 | CC#Cc1cc(C)c(C2C(=O)CC3(CCN(S(=O)(=O)c4cnccn4)CC3)CC2=O)c(C)c1 [Compound A107] | 4 (4=60-79%) | 3 (3=40-59%) | 5 (5=80-100%) | 4 (4=60-79%) | 5 (5=80-100%) | 5 (5=80-100%) | 5 (5=80-100%) | 5 (5=80-100%)
3 | CC#Cc1cc(C)c(C2C(=O)CC3(CCN(C(=O)c4cnn(C)n4)CC3)CC2=O)c(C)c1 [Compound A126] | 5 (5=80-100%) | 5 (5=80-100%) | 5 (5=80-100%) | 5 (5=80-100%) | 5 (5=80-100%) | 5 (5=80-100%) | 5 (5=80-100%) | 5 (5=80-100%)
4 | CC#Cc1cc(C)c(C2C(=O)CC3(CCN(C(=O)C4CCCO4)CC3)CC2=O)c(C)c1 (centres unmarked) [Compound A139] | 5 (5=80-100%) | 5 (5=80-100%) | 5 (5=80-100%) | 5 (5=80-100%) | 5 (5=80-100%) | 5 (5=80-100%) | 5 (5=80-100%) | 5 (5=80-100%)
5 | CC#Cc1cc(C)c(C2C(=O)CC3(CCN(C(=O)NC(=O)CC)CC3)CC2=O)c(C)c1 [Compound A108] | 5 (5=80-100%) | 5 (5=80-100%) | 5 (5=80-100%) | 5 (5=80-100%) | 5 (5=80-100%) | 5 (5=80-100%) | 5 (5=80-100%) | 5 (5=80-100%)
6 | CC#Cc1cc(C)c(C2=C(OC(=O)c3cccnc3)CC3(CCN(C(=O)c4cccnc4)CC3)CC2=O)c(C)c1 [Compound P36] | 4 (4=60-79%) | 5 (5=80-100%) | 5 (5=80-100%) | 5 (5=80-100%) | 5 (5=80-100%) | 5 (5=80-100%) | 5 (5=80-100%) | 5 (5=80-100%)
7 | CC#Cc1cc(C)c(C2C(=O)CC3(CCN(C(=O)c4cn(C)cn4)CC3)CC2=O)c(C)c1 [Compound A117] | 2 (2=20-39%) | 5 (5=80-100%) | 4 (4=60-79%) | 5 (5=80-100%) | 5 (5=80-100%) | 5 (5=80-100%) | 5 (5=80-100%) | 5 (5=80-100%)
8 | CC#Cc1cc(C)c(C2C(=O)CC3(CCN(C(=O)c4ccnn4C)CC3)CC2=O)c(C)c1 [Compound A136] | 5 (5=80-100%) | 5 (5=80-100%) | 5 (5=80-100%) | 5 (5=80-100%) | 5 (5=80-100%) | 5 (5=80-100%) | 5 (5=80-100%) | 5 (5=80-100%)
9 | CC#Cc1cc(C)c(C2C(=O)CC3(CCN(C(=O)c4cncs4)CC3)CC2=O)c(C)c1 [Compound A118] | 5 (5=80-100%) | 5 (5=80-100%) | 5 (5=80-100%) | 5 (5=80-100%) | 5 (5=80-100%) | 5 (5=80-100%) | 5 (5=80-100%) | 5 (5=80-100%)
10 | CC#Cc1cc(C)c(C2C(=O)CC3(CCN(C(=O)c4nnc(C)o4)CC3)CC2=O)c(C)c1 [Compound A119] | 5 (5=80-100%) | 5 (5=80-100%) | 5 (5=80-100%) | 5 (5=80-100%) | 5 (5=80-100%) | 5 (5=80-100%) | 5 (5=80-100%) | 5 (5=80-100%)
11 | CC#Cc1cc(C)c(C2C(=O)CC3(CCN(C(=O)NC(=O)C4CC4)CC3)CC2=O)c(C)c1 [Compound A141] | 4 (4=60-79%) | 5 (5=80-100%) | 5 (5=80-100%) | 5 (5=80-100%) | 5 (5=80-100%) | 5 (5=80-100%) | 5 (5=80-100%) | 5 (5=80-100%)
12 | CC#Cc1cc(C)c(C2C(=O)CC3(CCN(C(=O)c4cnccc4C)CC3)CC2=O)c(C)c1 [Compound A115] | 3 (3=40-59%) | 5 (5=80-100%) | 5 (5=80-100%) | 5 (5=80-100%) | 5 (5=80-100%) | 5 (5=80-100%) | 5 (5=80-100%) | 5 (5=80-100%)
13 | CC#Cc1cc(C)c(C2C(=O)CC3(CCN(C4=NOC(C)(C)C4)CC3)CC2=O)c(C)c1 [Compound A143] | 4 (4=60-79%) | 5 (5=80-100%) | 5 (5=80-100%) | 5 (5=80-100%) | 5 (5=80-100%) | 5 (5=80-100%) | 5 (5=80-100%) | 5 (5=80-100%)
14 | CC#Cc1cc(C)c(C2=C(OC(=O)OC)CC3(CCN(C(=O)Cc4ccccn4)CC3)CC2=O)c(C)c1 [Compound P47] | 5 (5=80-100%) | 5 (5=80-100%) | 5 (5=80-100%) | 5 (5=80-100%) | 5 (5=80-100%) | 5 (5=80-100%) | 5 (5=80-100%) | 5 (5=80-100%)
15 | CC#Cc1cc(C)c(C2C(=O)CC3(CCN(C(=O)c4cc(OC)ccn4)CC3)CC2=O)c(C)c1 [Compound A120] | 4 (4=60-79%) | 5 (5=80-100%) | 5 (5=80-100%) | 5 (5=80-100%) | 5 (5=80-100%) | 5 (5=80-100%) | 5 (5=80-100%) | 5 (5=80-100%)
16 | CC#Cc1cc(C)c(C2C(=O)CC3(CCN(C(=O)c4nn(C)nc4C)CC3)CC2=O)c(C)c1 [Compound A134] | 5 (5=80-100%) | 5 (5=80-100%) | 5 (5=80-100%) | 5 (5=80-100%) | 5 (5=80-100%) | 5 (5=80-100%) | 5 (5=80-100%) | 5 (5=80-100%)
